# Source: US20230143604A1, “QW DOSING OF GIP RECEPTOR AGONIST PEPTIDE COMPOUNDS AND USES THEREOF” (TAKEDA PHARMACEUTICAL COMPANY LIMITED, priority 2020, published 2023)
# Starred links: 1 amine or outer side, 2 acyl side, 3 side chain; linkers in the order of their positions; H or OH if unused. Non-standard residues stand in square brackets, D forms with d. Residues, ends and D or L forms follow the SMILES beside them. Groups on a side chain read outwards from the residue. *: point of attachment. C18 diacid = O=C(O)CCCCCCCCCCCCCCCCC(=O)*; C17 diacid = O=C(O)CCCCCCCCCCCCCCCC(=O)*; γGlu = O=C(O)[C@H](CCC(=O)[*:2])N[*:1]; NMeY = CN[C@@H](Cc1ccc(O)cc1)C(=O)O; AEEA = NCCOCCOCC(=O)O; Aib = CC(C)(N)C(=O)O
# Assay: Solubility in phosphate buffer pH 7.4
# Procedure: Solubility of the GIPR peptides may be determined by dissolution in a phosphate buffer followed by quantitation using liquid chromatography, for example, High Performance Liquid Chromatogry (HPLC). An illustrative method is provided. For determination of the solubility of the GIPr agonist peptides, 3 mg of peptides are weighted out in a small glass vial. 100 μL of 200 mM Phosphate buffer pH 7.4 are added and the vial is sonicated/votexed as necessary for a maximum of 1 min. […] If insoluble material is observed in the tube the addition of 100 μL of buffer and mixing is repeated until complete dissolution.
# 3 mg of peptides are weighted out in a small glass vial. 100 uL of 200 mM Phosphate buffer pH 7.4 are added and the vial is sonicated/votexed as necessary for a maximum of 1 min. […] If insoluble material is observed in the tube the addition of 100 uL of buffer and mixing is repeated until complete dissolution.
# [1] = pH 7.4, aqueous buffer, pH 7.4 Phosphate Buffer - Solubility, 200 mM Phosphate buffer pH 7.4
# [2] = pH 7.4, solubility in phosphate buffer at pH 7.4, 200 mM phosphate buffer pH 7.4
SMILES,solubility [1] [mg/mL],solubility [2] [mg/mL],solubility (pH 7.4) [mg/mL],"solubility (pH 7.4, aqueous buffer) [mg/mL]"
CC[C@H](C)[C@H](NC(=O)[C@H](CO)NC(=O)[C@H](Cc1ccc(O)cc1)NC(=O)[C@H](CC(=O)O)NC(=O)[C@H](CO)NC(=O)[C@@H](NC(=O)[C@H](Cc1ccccc1)NC(=O)[C@@H](NC(=O)CNC(=O)[C@H](CCC(=O)O)NC(=O)C(C)(C)NC(=O)[C@H](Cc1ccc(O)cc1)NC)[C@@H](C)O)[C@@H](C)CC)C(=O)N[C@@H](C)C(=O)N[C@@H](CCCCNC(=O)CC[C@H](NC(=O)CC[C@H](NC(=O)CC[C@H](NC(=O)CCCCCCCCCCCCCCCC(=O)O)C(=O)O)C(=O)O)C(=O)O)C(=O)N[C@@H](CC(=O)O)C(=O)N[C@@H](CCCNC(=N)N)C(=O)NC(C)(C)C(=O)N[C@@H](C)C(=O)N[C@@H](CCC(N)=O)C(=O)NC(C)(C)C(=O)N[C@@H](CC(N)=O)C(=O)N[C@@H](Cc1ccccc1)C(=O)N[C@H](C(=O)N[C@@H](CC(N)=O)C(=O)N[C@@H](Cc1c[nH]c2ccccc12)C(=O)N[C@@H](CC(C)C)C(=O)N[C@@H](CC(C)C)C(=O)N[C@@H](C)C(=O)N[C@@H](CCC(N)=O)C(=O)N[C@@H](CO)C(=O)N1CCC[C@H]1C(=O)N[C@@H](CO)C(=O)N[C@@H](CO)C(=O)NCC(=O)N[C@@H](C)C(=O)N1CCC[C@H]1C(=O)N1CCC[C@H]1C(=O)N1CCC[C@H]1C(=O)N[C@@H](CO)C(N)=O)C(C)C [Compound 12] (H-[NMeY][Aib]EGTFISDYSIAK([γGlu-γGlu-γGlu-C17 diacid])DR[Aib]AQ[Aib]NFVNWLLAQSPSSGAPPPS-NH2),≥ 30,≥ 15,,
CC[C@H](C)[C@H](NC(=O)[C@H](Cc1ccccc1)NC(=O)[C@@H](NC(=O)CNC(=O)[C@H](CCC(=O)O)NC(=O)C(C)(C)NC(=O)[C@H](Cc1ccc(O)cc1)NC)[C@@H](C)O)C(=O)N[C@@H](CO)C(=O)N[C@@H](CC(=O)O)C(=O)N[C@@H](Cc1ccc(O)cc1)C(=O)N[C@@H](CO)C(=O)N[C@H](C(=O)NC(C)(C)C(=O)N[C@@H](CCCCNC(=O)COCCOCCNC(=O)COCCOCCNC(=O)CC[C@H](NC(=O)CC[C@H](NC(=O)CCCCCCCCCCCCCCCC(=O)O)C(=O)O)C(=O)O)C(=O)N[C@@H](CC(=O)O)C(=O)N[C@@H](CCCNC(=N)N)C(=O)NC(C)(C)C(=O)N[C@@H](C)C(=O)N[C@@H](CCC(N)=O)C(=O)NC(C)(C)C(=O)N[C@@H](CC(N)=O)C(=O)N[C@@H](Cc1ccccc1)C(=O)N[C@H](C(=O)N[C@@H](CC(N)=O)C(=O)N[C@@H](Cc1c[nH]c2ccccc12)C(=O)N[C@@H](CC(C)C)C(=O)N[C@@H](CC(C)C)C(=O)N[C@@H](C)C(=O)N[C@@H](CCC(N)=O)C(=O)N[C@@H](CCCNC(=N)N)C(=O)N1CCC[C@H]1C(=O)N[C@@H](CO)C(=O)N[C@@H](CO)C(=O)NCC(=O)N[C@@H](C)C(=O)N1CCC[C@H]1C(=O)N1CCC[C@H]1C(=O)N1CCC[C@H]1C(=O)N[C@@H](CO)C(N)=O)C(C)C)[C@@H](C)CC [Compound 14] (H-[NMeY][Aib]EGTFISDYSI[Aib]K([AEEA-AEEA-γGlu-γGlu-C17 diacid])DR[Aib]AQ[Aib]NFVNWLLAQRPSSGAPPPS-NH2),≥ 30,≥ 15,,
CC[C@H](C)[C@H](NC(=O)[C@H](CO)NC(=O)[C@H](Cc1ccc(O)cc1)NC(=O)[C@H](CC(=O)O)NC(=O)[C@H](CO)NC(=O)[C@@H](NC(=O)[C@H](Cc1ccccc1)NC(=O)[C@@H](NC(=O)CNC(=O)[C@H](CCC(=O)O)NC(=O)C(C)(C)NC(=O)[C@H](Cc1ccc(O)cc1)NC)[C@@H](C)O)[C@@H](C)CC)C(=O)N[C@@H](C)C(=O)N[C@@H](CC(C)C)C(=O)N[C@@H](CC(=O)O)C(=O)N[C@@H](CCCNC(=N)N)C(=O)NC(C)(C)C(=O)N[C@@H](CCCCNC(=O)COCCOCCNC(=O)COCCOCCNC(=O)CC[C@H](NC(=O)CC[C@H](NC(=O)CCCCCCCCCCCCCCCCC(=O)O)C(=O)O)C(=O)O)C(=O)N[C@@H](CCC(N)=O)C(=O)NC(C)(C)C(=O)N[C@@H](CC(N)=O)C(=O)N[C@@H](Cc1ccccc1)C(=O)N[C@H](C(=O)N[C@@H](CC(N)=O)C(=O)N[C@@H](Cc1c[nH]c2ccccc12)C(=O)N[C@@H](CC(C)C)C(=O)N[C@@H](CC(C)C)C(=O)N[C@@H](C)C(=O)N[C@@H](CCC(N)=O)C(=O)N[C@@H](CCCNC(=N)N)C(N)=O)C(C)C [Compound 17] (H-[NMeY][Aib]EGTFISDYSIALDR[Aib]K([AEEA-AEEA-γGlu-γGlu-C18 diacid])Q[Aib]NFVNWLLAQR-NH2),,,≥ 15,≥ 30
CC[C@H](C)[C@H](NC(=O)[C@H](CO)NC(=O)[C@H](Cc1ccc(O)cc1)NC(=O)[C@H](CC(=O)O)NC(=O)[C@H](CO)NC(=O)[C@@H](NC(=O)[C@H](Cc1ccccc1)NC(=O)[C@@H](NC(=O)CNC(=O)[C@H](CCC(=O)O)NC(=O)C(C)(C)NC(=O)[C@H](Cc1ccc(O)cc1)NC)[C@@H](C)O)[C@@H](C)CC)C(=O)N[C@@H](C)C(=O)N[C@@H](CC(C)C)C(=O)N[C@@H](CC(=O)O)C(=O)N[C@@H](CCCNC(=N)N)C(=O)NC(C)(C)C(=O)N[C@@H](Cc1c[nH]cn1)C(=O)N[C@@H](CCC(N)=O)C(=O)NC(C)(C)C(=O)N[C@@H](CCCCNC(=O)COCCOCCNC(=O)COCCOCCNC(=O)CC[C@H](NC(=O)CC[C@H](NC(=O)CCCCCCCCCCCCCCCCC(=O)O)C(=O)O)C(=O)O)C(=O)N[C@@H](Cc1ccccc1)C(=O)N[C@H](C(=O)N[C@@H](CC(N)=O)C(=O)N[C@@H](Cc1c[nH]c2ccccc12)C(=O)N[C@@H](CC(C)C)C(=O)N[C@@H](CC(C)C)C(=O)N[C@@H](C)C(=O)N[C@@H](CCC(N)=O)C(=O)N[C@@H](CCCNC(=N)N)C(N)=O)C(C)C [Compound 18] (H-[NMeY][Aib]EGTFISDYSIALDR[Aib]HQ[Aib]K([AEEA-AEEA-γGlu-γGlu-C18 diacid])FVNWLLAQR-NH2),,,≥ 15,≥ 30
CC[C@H](C)[C@H](NC(=O)[C@H](CO)NC(=O)[C@H](Cc1ccc(O)cc1)NC(=O)[C@H](CC(=O)O)NC(=O)[C@H](CO)NC(=O)[C@@H](NC(=O)[C@H](Cc1ccccc1)NC(=O)[C@@H](NC(=O)CNC(=O)[C@H](CCC(=O)O)NC(=O)C(C)(C)NC(=O)[C@H](Cc1ccc(O)cc1)NC)[C@@H](C)O)[C@@H](C)CC)C(=O)N[C@@H](C)C(=O)N[C@@H](CC(C)C)C(=O)N[C@@H](CC(=O)O)C(=O)N[C@@H](CCCNC(=N)N)C(=O)N[C@@H](CCCCNC(=O)CNC(=O)CNC(=O)CNC(=O)CNC(=O)CNC(=O)CC[C@H](NC(=O)CCCCCCCCCCCCCCCC(=O)O)C(=O)O)C(=O)N[C@@H](Cc1c[nH]cn1)C(=O)N[C@@H](CCC(N)=O)C(=O)NC(C)(C)C(=O)N[C@@H](CC(N)=O)C(=O)N[C@@H](Cc1ccccc1)C(=O)N[C@H](C(=O)N[C@@H](CC(N)=O)C(=O)N[C@@H](Cc1c[nH]c2ccccc12)C(=O)N[C@@H](CC(C)C)C(=O)N[C@@H](CC(C)C)C(=O)N[C@@H](C)C(=O)N[C@@H](CCC(N)=O)C(=O)N[C@@H](CCCNC(=N)N)C(=O)N1CCC[C@H]1C(=O)N[C@@H](CO)C(=O)N[C@@H](CO)C(=O)NCC(=O)N[C@@H](C)C(=O)N1CCC[C@H]1C(=O)N1CCC[C@H]1C(=O)N1CCC[C@H]1C(=O)N[C@@H](CO)C(=O)O)C(C)C [Compound 20],≥ 15,,,
CC[C@H](C)[C@H](NC(=O)[C@H](CO)NC(=O)[C@H](Cc1ccc(O)cc1)NC(=O)[C@H](CC(=O)O)NC(=O)[C@H](CO)NC(=O)[C@@H](NC(=O)[C@H](Cc1ccccc1)NC(=O)[C@@H](NC(=O)CNC(=O)[C@H](CCC(=O)O)NC(=O)C(C)(C)NC(=O)[C@H](Cc1ccc(O)cc1)NC)[C@@H](C)O)[C@@H](C)CC)C(=O)N[C@@H](C)C(=O)N[C@@H](CC(C)C)C(=O)N[C@@H](CC(=O)O)C(=O)N[C@@H](CCCNC(=N)N)C(=O)NC(C)(C)C(=O)N[C@@H](C)C(=O)N[C@@H](CCC(N)=O)C(=O)NC(C)(C)C(=O)N[C@@H](CCCCNC(=O)COCCOCCNC(=O)COCCOCCNC(=O)CC[C@H](NC(=O)CC[C@H](NC(=O)CCCCCCCCCCCCCCCCC(=O)O)C(=O)O)C(=O)O)C(=O)N[C@@H](Cc1ccccc1)C(=O)N[C@H](C(=O)N[C@@H](CC(N)=O)C(=O)N[C@@H](Cc1c[nH]c2ccccc12)C(=O)N[C@@H](CC(C)C)C(=O)N[C@@H](CC(C)C)C(=O)N[C@@H](C)C(=O)N[C@@H](CCC(N)=O)C(=O)N[C@@H](CCCNC(=N)N)C(=O)NCC(=O)NCC(=O)NCC(=O)NCC(=O)N[C@@H](CO)C(N)=O)C(C)C [Compound 21] (H-[NMeY][Aib]EGTFISDYSIALDR[Aib]AQ[Aib]K([AEEA-AEEA-γGlu-γGlu-C18 diacid])FVNWLLAQRGGGGS-NH2),,,≥ 15,≥ 30
CC[C@H](C)[C@H](NC(=O)[C@H](CO)NC(=O)[C@H](Cc1ccc(O)cc1)NC(=O)[C@H](CC(=O)O)NC(=O)[C@H](CO)NC(=O)[C@@H](NC(=O)[C@H](Cc1ccccc1)NC(=O)[C@@H](NC(=O)CNC(=O)[C@H](CCC(=O)O)NC(=O)C(C)(C)NC(=O)[C@H](Cc1ccc(O)cc1)NC)[C@@H](C)O)[C@@H](C)CC)C(=O)N[C@@H](C)C(=O)N[C@@H](CCCCNC(=O)CNC(=O)CNC(=O)CNC(=O)CNC(=O)CNC(=O)CC[C@H](NC(=O)CCCCCCCCCCCCCCCC(=O)O)C(=O)O)C(=O)N[C@@H](CC(=O)O)C(=O)N[C@@H](CCCNC(=N)N)C(=O)NC(C)(C)C(=O)N[C@@H](C)C(=O)N[C@@H](CCC(N)=O)C(=O)NC(C)(C)C(=O)N[C@@H](CC(=O)O)C(=O)N[C@@H](Cc1ccccc1)C(=O)N[C@H](C(=O)N[C@@H](CC(N)=O)C(=O)N[C@@H](Cc1c[nH]c2ccccc12)C(=O)N[C@@H](CC(C)C)C(=O)N[C@@H](CC(C)C)C(=O)N[C@@H](C)C(=O)N[C@@H](CCC(N)=O)C(=O)N[C@@H](CCCNC(=N)N)C(=O)N1CCC[C@H]1C(=O)N[C@@H](CO)C(=O)N[C@@H](CO)C(=O)NCC(=O)N[C@@H](C)C(=O)N1CCC[C@H]1C(=O)N1CCC[C@H]1C(=O)N1CCC[C@H]1C(=O)N[C@@H](CO)C(N)=O)C(C)C [Compound 22],≥ 30,≥ 15,,
